Source: patent US11999727B2 (Tango Therapeutics, Inc., priority 2020, dated 2024)

How the values were obtained:
PRMT5 [1] = target: T1, PRMT5 (Homo sapiens, UniProt O14744); experiment: PRMT5 biochemical IC50 assay with SAM as cofactor; details: PRMT5, SAM as cofactor; read-out: SAM IC50
T1 construct: purchased Viva (custom protein)

PRMT5 [2] = target: T1, PRMT5; experiment: PRMT5 biochemical IC50 assay with no cofactor; details: PRMT5, no cofactor
Source text: Table 1 indicates IC50 values (μM) against PRMT5 for exemplary compounds in the presence of SAM as cofactor, with no cofactor, and with MTA as cofactor, respectively (columns 4-6). […] Ki values can be calculated from the IC50 values as described in the Examples section. As detailed in the Examples section, for the assay performed in the presence of SAM, IC50=Ki×1.5 (Ki=IC50/1.5).

[3] = tested on: HAP1 MTAP-intact cell line; experiment: SDMA in-cell western assay, HAP1 MTAP-intact; assay type: cell-based; details: Homo sapiens, HAP1, SDMA in-cell western, HAP1 MTAP-intact; read-out: MTAP HAP1 intact IC50
How it was run: (§1)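 Isogenic HAP1 pair: the MTAP-intact line expresses endogenous MTAP, and the deleted line is MTAP-null. Symmetric dimethylarginine was detected by in-cell western and IC50 values derived for each line.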

[4] = tested on: HAP1 MTAP-deleted cell line; experiment: Viability assay, MTAP-deleted cell line; assay type: cell-based; details: Homo sapiens, read-out: HAP1 MTAP deleted viability
Source text: Table 1 additionally indicates IC50 values in a viability assay for the MTAP-deleted cell line (column 10), indicating the effect of treatment with compound on cell survival.

[5] = tested on: HAP1 MTAP-deleted cell line; experiment: SDMA in-cell western assay, HAP1 MTAP-deleted; assay type: cell-based; details: for IC50: Homo sapiens, HAP1, SDMA in-cell western, HAP1 MTAP-deleted; for MTAP intact/deleted ratio: SDMA in-cell western
How it was run: as §1

PRMT5 [6] = target: T1, PRMT5; experiment: PRMT5 biochemical IC50 assay with MTA as cofactor; details: PRMT5, MTA as cofactor; read-out: MTA IC50
[7] = HAP1, viability assay, HAP1 MTAP-deleted
[8] = read-out: HAP1 MTAP deleted IC50
[9] = IC50 ratio HAP1 MTAP-intact / HAP1 MTAP-deleted
[10] = HAP1, viability IC50, MTAP-deleted cell line
[11] = read-out: HAP 1 MTAP deleted IC50
[12] = read-out: No Cofactor/ rel IC50
[13] = HAP1, viability assay, MTAP-deleted cell line

T1 sequence (O14744 whole entry): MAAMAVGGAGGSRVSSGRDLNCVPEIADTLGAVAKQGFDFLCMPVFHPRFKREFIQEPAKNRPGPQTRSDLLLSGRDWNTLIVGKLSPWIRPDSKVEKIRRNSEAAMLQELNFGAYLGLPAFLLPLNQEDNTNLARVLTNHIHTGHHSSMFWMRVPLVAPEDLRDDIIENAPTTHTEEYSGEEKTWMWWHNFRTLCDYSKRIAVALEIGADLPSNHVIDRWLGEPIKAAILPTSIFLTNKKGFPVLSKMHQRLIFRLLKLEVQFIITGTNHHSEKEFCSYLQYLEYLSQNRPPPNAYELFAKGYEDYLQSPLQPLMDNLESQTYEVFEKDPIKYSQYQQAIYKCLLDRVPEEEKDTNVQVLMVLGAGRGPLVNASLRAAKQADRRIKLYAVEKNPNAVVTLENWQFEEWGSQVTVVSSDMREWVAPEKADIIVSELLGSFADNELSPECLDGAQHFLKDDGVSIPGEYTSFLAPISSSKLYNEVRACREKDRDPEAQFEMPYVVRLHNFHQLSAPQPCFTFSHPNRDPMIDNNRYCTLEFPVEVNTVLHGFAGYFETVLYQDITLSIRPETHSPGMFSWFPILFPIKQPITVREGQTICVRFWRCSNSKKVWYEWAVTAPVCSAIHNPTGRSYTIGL
T1 sequence (Q9BQA1 whole entry partner): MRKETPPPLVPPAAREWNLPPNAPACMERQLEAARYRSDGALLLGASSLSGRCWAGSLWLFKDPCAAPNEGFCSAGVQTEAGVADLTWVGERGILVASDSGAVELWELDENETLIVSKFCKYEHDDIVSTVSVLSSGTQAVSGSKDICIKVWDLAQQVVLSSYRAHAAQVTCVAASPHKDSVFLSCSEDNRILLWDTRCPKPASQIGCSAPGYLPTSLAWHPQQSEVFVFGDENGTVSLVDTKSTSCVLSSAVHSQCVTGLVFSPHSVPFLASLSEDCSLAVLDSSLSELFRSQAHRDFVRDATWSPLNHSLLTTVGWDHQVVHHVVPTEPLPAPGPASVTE

| SMILES | IC50 (PRMT5 [1]) [nM] | IC50 (PRMT5 [2]; read-out: No Cofactor/rel IC50) [nM] | IC50 [3] [nM] | IC50 [4, 7] [nM] | IC50 [5, 8] [nM] | MTAP intact/deleted ratio [5, 9] | IC50 (PRMT5 [6]) [nM] | IC50 [4, 10] [nM] | IC50 [5, 11] [nM] | IC50 (PRMT5 [2]; [12]) [nM] | IC50 [4, 13] [nM] | MTAP intact/deleted ratio ([5]; IC50 ratio HAP1 MTAP-intact vs HAP1 MTAP-deleted) | IC50 ([4]; HAP1, viability, HAP1 MTAP-deleted cell line) [nM] |
| --- | --- | --- | --- | --- | --- | --- | --- | --- | --- | --- | --- | --- | --- |
| C[C@@H]1CC[C@@H](c2ccc(-c3cncs3)cc2)N(C(=O)C(=O)Nc2cncc(C(N)=O)c2)C1 (single isomer, unassigned) [Compound 817, 5-(2-(5-methyl-2-(4-(thiazol-5-yl)phenyl)piperidin-1-yl)-2-oxoacetamido)nicotinamide] | > 500 | > 500 | > 1000 | > 10000 | > 1000 | C (an IC50 ratio of less than 3 fold) | > 500 |  |  |  |  |  |  |
| C[C@@H]1CC[C@@H](c2ccc3[nH]c(=O)ccc3c2)N(C(=O)C(=O)Nc2cncc(C(N)=O)c2)C1 (racemic) [Compound 670, rac-5-(2-((2R,5S)-5-Methyl-2-(2-oxo-1,2-dihydroquinolin-6-yl)piperidin-1-yl)-2-oxoacetamido)nicotinamide] | 50 to 500 | 50 to 500 | > 1000 |  |  | A (an IC50 ratio greater than or equal to 10 fold) | < 50 | 1000 to 10000 | 100 to 1000 |  |  |  |  |
| Cc1cc(NC(=O)C(=O)N2C[C@H](C)CC[C@H]2c2ccc3[nH]ncc3c2)cnc1C (single isomer, unassigned) [Compound 631] | > 500 | > 500 | > 1000 |  |  | C (an IC50 ratio of less than 3 fold) | > 500 | > 10000 | > 1000 |  |  |  |  |
| COc1ncc(NC(=O)C(=O)N2C[C@H](C)CC[C@H]2c2cc(F)c(F)c(F)c2)cc1C(N)=O (single isomer, unassigned) [Compound 742] | 50 to 500 | 50 to 500 | > 1000 | 1000 to 10000 | 100 to 1000 | A (an IC50 ratio greater than or equal to 10 fold) | < 50 |  |  |  |  |  |  |
| C[C@@H]1CC[C@H](c2ccnn2C)N(C(=O)C(=O)Nc2cncc(C(N)=O)c2)C1 (racemic) [Compound 72, 5-(2-(5-methyl-2-(1-methyl-1H-pyrazol-5-yl)piperidin-1-yl)-2-oxoacetamido)nicotinamide] | 50 to 500 |  | > 1000 |  |  | A (an IC50 ratio greater than or equal to 10 fold) | 50 to 500 |  | 100 to 1000 | 50 to 500 | > 10000 |  |  |
| C[C@@H]1CC[C@H](c2ccc(NCC(=O)N(C)C)cc2)N(C(=O)C(=O)Nc2cncc(C(N)=O)c2)C1 (racemic) [Compound 422, 5-[[2-[(2R,5R)-2-[4-[[2-(Dimethylamino)-2-oxo-ethyl]amino]phenyl]-5-methyl-1-piperidyl]-2-oxo-acetyl]amino]pyridine-3-carboxamide] | 50 to 500 | > 500 | > 1000 |  | 100 to 1000 | A (an IC50 ratio greater than or equal to 10 fold) | 50 to 500 |  |  |  | > 10000 |  |  |
| Cc1cc(NC(=O)C(=O)N2C[C@H](C)CC[C@H]2c2ccc3[nH]ncc3n2)cnc1N (single isomer, unassigned) [Compound 788] | 50 to 500 | < 50 | 100 to 1000 | < 1000 | < 100 | A (an IC50 ratio greater than or equal to 10 fold) | < 50 |  |  |  |  |  |  |
| Cc1cc(NC(=O)C(=O)N2C[C@@H](C)CC[C@@H]2c2ccc3[nH]ncc3c2)cnc1C (single isomer, unassigned) [Compound 620] | 50 to 500 | < 50 | 100 to 1000 |  |  | A (an IC50 ratio greater than or equal to 10 fold) | < 50 | < 1000 | < 100 |  |  |  |  |
| COc1cc([C@@H]2CC[C@@H](C)CN2C(=O)C(=O)Nc2cncc(C(N)=O)c2)ccc1F (racemic) [Compound 222, rac-5-{2-[(2R,5S)-2-(4-Fluoro-3-methoxyphenyl)-5-methylpiperidin-1-yl]-2-oxoacetamido}pyridine-3-carboxamide] | 50 to 500 | 50 to 500 | > 1000 |  | 100 to 1000 | A (an IC50 ratio greater than or equal to 10 fold) | < 50 |  |  |  | 1000 to 10000 |  |  |
| Cc1cc(NC(=O)C(=O)N2C[C@@H](C)[C@@H](OC(F)(F)F)C[C@@H]2c2ccc(F)cc2)cnc1N (single isomer, unassigned) [Compound 1213] | 50 to 500 | < 50 | 100 to 1000 |  | < 100 |  | < 50 |  |  |  | < 1000 | A (an IC50 ratio greater than or equal to 10 fold) |  |
| Cc1cc(NC(=O)C(=O)N2C[C@H](C)C(F)(F)C[C@H]2c2ccc(F)cc2)cnc1N (single isomer, unassigned) [Compound 777] | > 500 | > 500 | > 1000 | > 10000 | > 1000 | B (an IC50 ratio greater than or equal to 3 fold but lower than 10 fold) | > 500 |  |  |  |  |  |  |
| Cc1cc(NC(=O)C(=O)N2C[C@@H](C)CC[C@@H]2c2ccc(C(F)F)nc2)cnc1N (single isomer, unassigned) [Compound 1018] | 50 to 500 | 50 to 500 | 100 to 1000 |  |  | B (an IC50 ratio greater than or equal to 3 fold but lower than 10 fold) | < 50 |  | 100 to 1000 |  | 1000 to 10000 |  |  |
| CC(C)c1cc([C@@H]2CC[C@@H](C)CN2C(=O)C(=O)Nc2cncc(C(N)=O)c2)ccc1O (racemic) [Compound 552, 5-[[2-[(2S,5R)-2-(4-Hydroxy-3-isopropyl-phenyl)-5-methyl-1-piperidyl]-2-oxo-acetyl]amino]pyridine-3-carboxamide] | 50 to 500 | 50 to 500 | > 1000 |  |  | A (an IC50 ratio greater than or equal to 10 fold) | < 50 | < 1000 | < 100 |  |  |  |  |
| COc1ncc(NC(=O)C(=O)N2C[C@@H](C)CC[C@@H]2c2ccc3sc(C)nc3c2)cc1C(N)=O (single isomer, unassigned) [Compound 797] | 50 to 500 | < 50 | > 1000 | < 1000 | < 100 | A (an IC50 ratio greater than or equal to 10 fold) | < 50 |  |  |  |  |  |  |
| C[C@]1(F)CC[C@@H](c2ccccc2)N(C(=O)C(=O)Nc2cncc(C(N)=O)c2)C1 (single isomer, unassigned) [Compound 798, 5-(2-(5-fluoro-5-methyl-2-phenylpiperidin-1-yl)-2-oxoacetamido)nicotinamide] | > 500 | > 500 | > 1000 | > 10000 | > 1000 | C (an IC50 ratio of less than 3 fold) | > 500 |  |  |  |  |  |  |
| Cc1cc(NC(=O)C(=O)N2C[C@H](C)CC[C@H]2C2CC3(CCC3)C2)cnc1N (racemic) [Compound 692, N-(6-amino-5-methylpyridin-3-yl)-2-(5-methyl-2-(spiro[3.3]heptan-2-yl)piperidin-1-yl)-2-oxoacetamide] | > 500 | > 500 | > 1000 |  |  | C (an IC50 ratio of less than 3 fold) | 50 to 500 | > 10000 | > 1000 |  |  |  |  |
| CCc1cc(NC(=O)C(=O)N2C[C@@H](C)CC[C@@H]2c2ccc3nn(C4CCN(C)CC4)cc3c2)cnc1N [Compound 1321, N-(6-Amino-5-ethyl-3-pyridyl)-2-[(2R,5S)-5-methyl-2-[2-(1-methyl-4-piperidyl)indazol-5-yl]-1-piperidyl]-2-oxo-acetamide] | < 50 |  | < 100 |  |  | A (an IC50 ratio greater than or equal to 10 fold) | < 50 |  | < 100 | < 50 |  |  | < 1000 |
| COc1ncc(NC(=O)C(=O)N2C[C@@H](C)CC[C@@H]2c2cnc3[nH]ncc3c2)cc1C(N)=O (single isomer, unassigned) [Compound 537] | > 500 | > 500 | > 1000 |  |  | C (an IC50 ratio of less than 3 fold) | > 500 | > 10000 | > 1000 |  |  |  |  |
